Where “and” joins values, the source holds several entries; their conditions need not be identical. Equal values may be shown once. Entries after “also recorded” stand apart in the source; their conditions may differ. Where a name gives a salt, the structure may show the parent alone.
Columns and labels:
IGF-II P4 promoter [1] = conditions: cited from earlier work
IGF-II mRNA = assay: IGF-II expression assay, qPCR detection, in primary spinal cord cultures; type: cell-based, mice; conditions: HCl
Procedure: Quantitative PCR utilizing SYBR green I (Molecular Probes, Eugene, Oreg.) or specific Taqman probes was used to confirm differential gene expression. RNA extracted from 100-200 LCMed motor neurons were reverse transcribed using Superscript III (Invitrogen). 2 μl of diluted cDNA was amplified (DNA Engine Opticon real-time PCR machine, Bio-Rad), in […] reactions containing 900 nM primer and 250 nM probe in Taqman Universal Master Mix (Applied Biosystems). Reactions were run in duplicate and each gene analyzed in at least three different animals. Reaction parameters were as follows: 50° C. for 2 min, 95° C. for 10 min, and 40 cycles of 95° C. for 15 s and 60° C. for 1 min. Controls lacking template and/or Superscript were included. The absolute copy number for each gene was quantified using a standard curve from human GAPDH plasmid and amplified products were normalized against rat GAPDH expression. Primers and probes (Integrated DNA technologies) were as follows: rat GAPDH: Forward primer: […]
Two libraries of FDA-approved drugs (NINDS and Harvard LDDN) were screened for their ability to up-regulate IGF-II expression. Candidate compounds were screened in an IGF-II expression assay using a qPCR detection methodology in primary spinal cord cultures or using a luciferase reporter assay. In the initial screening, therapeutic candidates were identified as those that increased IGF-II expression by at least 2-fold. […]

IGF-II protein = IGF-II protein expression in primary spinal cord cultures, quantitated by ELISA; type: cell-based, mice
Source text: Further results of the library screening identified the following therapeutic agents as having a significant inducing effect on IGF-II expression in primary spinal cord cultures and are useful for treating motor neuron disease. Protein expression was quantitated by ELISA.

[2] = tested on: motor neurons in primary spinal cord cultures; assay: Low-level progressive glutamate excitotoxicity in primary spinal cord cultures; type: cell-based, mice; conditions: drug pretreatment; glutamate/PDC treatments 48 hours apart; FIG. 8; HCl
Procedure: Primary spinal cord cultures from E12 pregnant mice were pre-treated for 72 hours with 1 μM, 2.5 μM, 5 μM, or 10 μM of a selected drug according to prior optimized dosing regimen. Drugs tested were identified during screening of qPCR. Subsequently, experimental cultures were grown in the presence of 0, 1.0 μM, 2.5 μM, or 10 μM drug for 24 hours prior to exposure to two glutamate (20 μM)/PDC (1 μM) or glutamate (50 μM)/PDC (10 μM) treatments 48 hours apart. Control samples (no glutamate/PDC treatment) were cultured for 24 hours in the presence of 10 μM drug administered 3 times to determine toxicity of treatment. All cultures were then fixed and stained with ChAT, Hoechst stain of the nuclei, and Islet1/2 antibody labels for the motorneuron columns. Results were analyzed using an In Cell Analyzer (GE Healthcare). Results were presented as percent of vehicle (DMSO) treated control cells.

IGF-II P4 promoter [3] = assay: Luciferase reporter assay, P4 IGF-II promoter cell line (SK-N-FI cells); type: cell-based; conditions: FIG. 9, HCl
Procedure: pGL4.17[luc/Neo] reporter constructs were transfected to contain the P4 IGF-II promoter using the Blue Heron Bio GeneMaker. After transfection of reporter constructs into SK-N-FI cells+IGF-II using G418 selection pressure for generation of stable cell-line, clonal expansion, IGF-II up-regulating drugs such as glucocorticoids were added, and luminescence was measured. The cell lines were optimized for luciferase intensity, background, and responsiveness. The transfected cells were then used to screen the drug libraries described above
The P4 promoter cell line was cultured as described above. Eight drugs that were positive in the small library screen were tested as described above, and luciferase luminescence was measured. Of the eight tested drugs, four acted on the P4 IGF-II promoter. The best-performing non-glucocorticoid candidate that was tested was Vardenafil HCl. […] Vardenafil HCl is a phosphodiesterase type 5 (PDE5) inhibitor with a structure as shown in FIG. 11 and is known to increase cellular cGMP. Vardenafil has been previously FDA approved for treatment of erectile dysfunction and is also clinically used for treating pulmonary hypertension, and is in preclinical studies as a treatment of cystic fibrosis.

For `C[C@]12CCC(=O)C=C1CC[C@@H]1[C@@H]2[C@@H](O)C[C@@]2(C)[C@H]1CC[C@]2(O)C(=O)CO` [hydrocortisone], the “P4 IGF-II promoter activation (known)” value (IGF-II P4 promoter [1]) is given as “known P4 activator”.
For `CCCc1nc(C)c2c(=O)[nH]c(-c3cc(S(=O)(=O)N4CCN(CC)CC4)ccc3OCC)nn12` [Vardenafil HCl], the “Fold Increase in IGF-II mRNA Expression” value (IGF-II mRNA) was 6.5 fold and 6.5 ± 0.2 fold, the “Fold Increase in IGF-II Protein Expression” value (IGF-II protein) was 1.6 fold and the “IGF-II Protein Expression (pg/ml in media)” value (IGF-II protein; in media) was “(245 ± 27) pg/ml”. The “protection of motor neurons against glutamate/PDC excitotoxic insult” value [2] was “provided a level of protection; also recorded: rescues primary motor neurons from low-level progressive glutamate toxicity” and the “luciferase luminescence, activation of P4 IGF-II promoter” value (IGF-II P4 promoter [3]) was “roughly equal to those of Hydrocortisone at three concentrations; also recorded: activation, as shown in FIG. 9, at a level similar to the known P4 activator hydrocortisone”.

Reference: US20130274235A1, “TREATMENT OF MOTOR NEURON DISEASE” (THE GENERAL HOSPITAL CORPORATION, priority 2010, published 2013)
